Source: ChEMBL document CHEMBL1909046, “DrugMatrix in vitro pharmacology data”
pIC50, pKi: −log10 of the molar value.

How the values were obtained:
Substance-K receptor = target: T1, Substance-K receptor (Homo sapiens, UniProt P21452); assay type: cell membranes, CHO, Membrane; conditions: for IC50: cho; for pIC50: read-out: IC50; for pKi: read-out: Ki; on all read-outs here: in other assays of this panel Not Active means under 50% inhibition at 10 µM
T1 sequence (P21452 whole entry): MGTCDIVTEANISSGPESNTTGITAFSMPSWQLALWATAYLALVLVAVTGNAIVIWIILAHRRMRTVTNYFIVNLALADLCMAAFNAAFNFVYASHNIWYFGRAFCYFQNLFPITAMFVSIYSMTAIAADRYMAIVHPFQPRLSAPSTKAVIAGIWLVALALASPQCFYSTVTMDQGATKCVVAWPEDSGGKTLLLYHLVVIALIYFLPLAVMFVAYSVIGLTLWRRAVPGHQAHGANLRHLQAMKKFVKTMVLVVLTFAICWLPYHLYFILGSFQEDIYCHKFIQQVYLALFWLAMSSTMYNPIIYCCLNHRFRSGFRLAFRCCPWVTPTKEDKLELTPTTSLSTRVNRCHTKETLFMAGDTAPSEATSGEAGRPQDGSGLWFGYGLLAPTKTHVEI

[1] = target: Sodium-dependent noradrenaline transporter (Homo sapiens, UniProt P23975); test: DRUGMATRIX: Norepinephrine Transporter radioligand binding (ligand: [125I] RTI-55); assay type: cell membranes, MDCK, Membrane; conditions: Not Active = under 50% inhibition at 10 µM; for IC50: mdck; for pIC50: read-out: IC50; for pKi: read-out: Ki
Chain of Sodium-dependent noradrenaline transporter (P23975 whole entry): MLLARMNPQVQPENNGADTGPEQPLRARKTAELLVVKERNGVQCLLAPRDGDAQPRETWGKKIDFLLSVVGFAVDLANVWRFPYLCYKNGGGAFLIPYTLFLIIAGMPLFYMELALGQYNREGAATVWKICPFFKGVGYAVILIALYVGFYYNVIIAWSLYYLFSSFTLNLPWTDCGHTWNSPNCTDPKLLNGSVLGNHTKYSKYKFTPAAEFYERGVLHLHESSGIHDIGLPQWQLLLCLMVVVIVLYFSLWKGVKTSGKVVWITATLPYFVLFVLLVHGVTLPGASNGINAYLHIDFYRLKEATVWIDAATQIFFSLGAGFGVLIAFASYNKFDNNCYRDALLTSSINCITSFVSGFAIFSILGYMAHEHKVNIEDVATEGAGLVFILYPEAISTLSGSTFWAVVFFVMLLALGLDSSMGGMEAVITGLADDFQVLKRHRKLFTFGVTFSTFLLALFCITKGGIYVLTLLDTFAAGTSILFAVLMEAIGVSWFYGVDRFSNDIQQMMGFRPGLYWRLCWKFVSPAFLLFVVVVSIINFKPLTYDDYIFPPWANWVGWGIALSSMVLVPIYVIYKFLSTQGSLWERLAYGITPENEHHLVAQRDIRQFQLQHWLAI

[2] = target: T2, Receptor-type tyrosine-protein phosphatase C (Homo sapiens, UniProt P08575); design: species or system Escherichia coli;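 further: inhibition of CD45 enzyme activity measured using DiFMUP as substrate; in other assays of this panel Not Active means under 50% inhibition at 10 µM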
T2 sequence (P08575 whole entry): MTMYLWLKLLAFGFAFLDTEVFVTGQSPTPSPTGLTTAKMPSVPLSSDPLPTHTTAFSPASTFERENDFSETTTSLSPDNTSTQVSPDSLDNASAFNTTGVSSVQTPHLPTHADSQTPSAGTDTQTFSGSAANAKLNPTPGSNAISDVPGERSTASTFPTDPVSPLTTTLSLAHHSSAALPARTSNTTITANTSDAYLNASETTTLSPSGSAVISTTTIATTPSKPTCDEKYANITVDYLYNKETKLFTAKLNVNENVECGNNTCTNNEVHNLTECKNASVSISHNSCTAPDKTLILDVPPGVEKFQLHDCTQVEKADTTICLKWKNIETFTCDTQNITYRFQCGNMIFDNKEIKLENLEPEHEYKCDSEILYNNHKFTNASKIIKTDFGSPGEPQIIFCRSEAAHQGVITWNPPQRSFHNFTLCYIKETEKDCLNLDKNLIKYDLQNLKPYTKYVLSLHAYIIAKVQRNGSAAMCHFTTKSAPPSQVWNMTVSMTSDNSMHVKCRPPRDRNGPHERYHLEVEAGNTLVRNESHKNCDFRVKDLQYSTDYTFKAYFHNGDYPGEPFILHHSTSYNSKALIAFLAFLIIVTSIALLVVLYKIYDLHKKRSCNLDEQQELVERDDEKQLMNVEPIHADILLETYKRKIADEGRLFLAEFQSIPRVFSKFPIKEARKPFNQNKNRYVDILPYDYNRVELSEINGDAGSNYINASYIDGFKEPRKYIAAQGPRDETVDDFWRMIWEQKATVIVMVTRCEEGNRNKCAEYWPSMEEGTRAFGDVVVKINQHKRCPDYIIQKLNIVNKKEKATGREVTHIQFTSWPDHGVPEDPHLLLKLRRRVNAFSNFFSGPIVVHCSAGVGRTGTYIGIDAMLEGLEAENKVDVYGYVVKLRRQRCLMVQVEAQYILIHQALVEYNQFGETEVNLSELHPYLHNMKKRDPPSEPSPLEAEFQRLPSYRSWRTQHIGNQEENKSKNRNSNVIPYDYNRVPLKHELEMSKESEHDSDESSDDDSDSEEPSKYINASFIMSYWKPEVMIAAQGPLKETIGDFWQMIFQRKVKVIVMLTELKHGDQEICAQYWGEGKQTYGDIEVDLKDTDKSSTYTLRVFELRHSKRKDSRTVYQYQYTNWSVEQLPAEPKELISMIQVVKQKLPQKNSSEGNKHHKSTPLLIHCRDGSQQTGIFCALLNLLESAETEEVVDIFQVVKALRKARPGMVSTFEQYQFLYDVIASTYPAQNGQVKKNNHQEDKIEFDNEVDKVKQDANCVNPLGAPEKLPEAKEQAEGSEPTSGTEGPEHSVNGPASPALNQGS

Cytochrome P450 3A4 = Cytochrome P450 3A4 (Homo sapiens, UniProt P08684); conditions: bti-tn-5b1-4; further: in other assays of this panel Not Active means under 50% inhibition at 10 µM
Chain of Cytochrome P450 3A4 (P08684 whole entry): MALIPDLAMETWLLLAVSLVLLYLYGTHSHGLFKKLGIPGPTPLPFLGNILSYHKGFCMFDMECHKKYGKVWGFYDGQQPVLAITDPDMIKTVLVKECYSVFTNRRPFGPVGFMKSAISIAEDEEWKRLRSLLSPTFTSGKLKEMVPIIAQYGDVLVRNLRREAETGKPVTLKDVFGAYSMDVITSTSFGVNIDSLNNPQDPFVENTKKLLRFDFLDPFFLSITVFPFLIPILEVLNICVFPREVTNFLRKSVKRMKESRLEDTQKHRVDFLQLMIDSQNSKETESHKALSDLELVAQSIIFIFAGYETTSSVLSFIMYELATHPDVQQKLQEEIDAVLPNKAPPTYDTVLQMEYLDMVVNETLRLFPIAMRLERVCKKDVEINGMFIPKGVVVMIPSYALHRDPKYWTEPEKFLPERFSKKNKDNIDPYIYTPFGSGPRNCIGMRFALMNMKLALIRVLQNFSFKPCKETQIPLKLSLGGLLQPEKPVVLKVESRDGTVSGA

[3] = target: Vascular endothelial growth factor receptor 1 (Homo sapiens, UniProt P17948); test: biochemical; assay type: cell-based, HUVEC; conditions: for IC50: huvec; on all read-outs here: in other assays of this panel Not Active means under 50% inhibition at 10 µM
Chain of Vascular endothelial growth factor receptor 1 (P17948 whole entry): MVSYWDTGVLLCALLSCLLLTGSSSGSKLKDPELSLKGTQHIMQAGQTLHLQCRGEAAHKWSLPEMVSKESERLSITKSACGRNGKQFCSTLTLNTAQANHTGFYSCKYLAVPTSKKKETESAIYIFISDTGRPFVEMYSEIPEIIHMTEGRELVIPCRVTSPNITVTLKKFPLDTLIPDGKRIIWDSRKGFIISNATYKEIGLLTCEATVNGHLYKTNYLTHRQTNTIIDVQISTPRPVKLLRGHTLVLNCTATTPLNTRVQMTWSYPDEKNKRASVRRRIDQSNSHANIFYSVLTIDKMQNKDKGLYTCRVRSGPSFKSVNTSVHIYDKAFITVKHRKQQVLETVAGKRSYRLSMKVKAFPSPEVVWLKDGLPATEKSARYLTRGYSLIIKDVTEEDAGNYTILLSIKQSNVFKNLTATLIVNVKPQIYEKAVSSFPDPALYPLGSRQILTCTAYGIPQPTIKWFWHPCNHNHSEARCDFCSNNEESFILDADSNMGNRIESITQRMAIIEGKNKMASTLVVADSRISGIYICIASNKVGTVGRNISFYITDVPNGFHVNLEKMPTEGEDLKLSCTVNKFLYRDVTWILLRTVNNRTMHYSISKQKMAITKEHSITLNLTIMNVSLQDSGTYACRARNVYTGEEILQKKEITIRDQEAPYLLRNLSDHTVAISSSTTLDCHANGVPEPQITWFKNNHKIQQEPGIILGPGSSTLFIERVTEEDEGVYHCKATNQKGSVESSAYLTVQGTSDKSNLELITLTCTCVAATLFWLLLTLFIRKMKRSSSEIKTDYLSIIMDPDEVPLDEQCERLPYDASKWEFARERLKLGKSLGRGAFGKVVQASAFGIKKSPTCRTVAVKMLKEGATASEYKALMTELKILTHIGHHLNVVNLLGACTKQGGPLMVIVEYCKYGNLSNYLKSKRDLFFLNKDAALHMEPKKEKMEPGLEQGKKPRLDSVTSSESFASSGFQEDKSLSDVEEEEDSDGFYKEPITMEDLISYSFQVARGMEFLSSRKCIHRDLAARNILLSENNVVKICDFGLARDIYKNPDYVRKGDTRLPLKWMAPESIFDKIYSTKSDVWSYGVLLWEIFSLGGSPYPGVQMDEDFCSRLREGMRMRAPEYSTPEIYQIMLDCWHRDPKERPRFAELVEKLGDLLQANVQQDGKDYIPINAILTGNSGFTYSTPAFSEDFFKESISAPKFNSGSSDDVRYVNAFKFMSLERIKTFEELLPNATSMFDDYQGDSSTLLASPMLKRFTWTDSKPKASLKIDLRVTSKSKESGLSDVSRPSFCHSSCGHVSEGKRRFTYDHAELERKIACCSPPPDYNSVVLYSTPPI

[4] = target: Beta-3 adrenergic receptor (Homo sapiens, UniProt P13945); test: DRUGMATRIX: Adrenergic beta3 radioligand binding (ligand: [125I] Cyanopindolol); assay type: cell membranes, HEK293, Membrane; conditions: Not Active = under 50% inhibition at 10 µM; for IC50: hek293
Chain of Beta-3 adrenergic receptor (P13945 whole entry): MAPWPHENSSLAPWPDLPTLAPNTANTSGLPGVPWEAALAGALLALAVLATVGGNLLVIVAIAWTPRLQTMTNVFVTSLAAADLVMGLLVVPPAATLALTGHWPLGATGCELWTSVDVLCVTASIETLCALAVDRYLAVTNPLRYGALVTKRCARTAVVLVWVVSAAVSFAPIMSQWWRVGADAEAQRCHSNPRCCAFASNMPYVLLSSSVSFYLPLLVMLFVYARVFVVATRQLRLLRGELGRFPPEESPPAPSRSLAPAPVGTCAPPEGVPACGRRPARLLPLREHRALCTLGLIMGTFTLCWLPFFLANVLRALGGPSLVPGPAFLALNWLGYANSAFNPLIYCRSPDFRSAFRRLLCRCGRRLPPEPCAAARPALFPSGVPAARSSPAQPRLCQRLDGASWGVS

Compound | IC50 (Substance-K receptor) | IC50 [1] | IC50 [2] | IC50 (Cytochrome P450 3A4) | Ki (Cytochrome P450 3A4) | IC50 [3] | IC50 [4] | pIC50 [1] | pKi [1] | pIC50 ([3]; read-out: IC50) | pKi ([3]; read-out: Ki) | pIC50 (Substance-K receptor) | pKi (Substance-K receptor) | pIC50 ([4]; read-out: IC50) | pKi ([4]; read-out: Ki)
Nn1nnc2ccccc21 | Not Active | Not Active | Not Active | Not Active | Not Active | Not Active | Not Active | – | – | – | – | – | – | – | –
CC[C@]1(O)CC[C@H]2[C@@H]3CCC4=CCCC[C@@H]4[C@H]3CC[C@@]21C | Not Active | – | Not Active | Not Active | Not Active | Not Active | Not Active | 5.68 | 5.68 | – | – | – | – | – | –
N[C@@H](Cc1ccc(F)cc1)C(=O)O | Not Active | Not Active | Not Active | – | – | Not Active | Not Active | – | – | – | – | – | – | – | –
CCOC(=O)[C@H](CCc1ccccc1)N[C@@H](C)C(=O)N1Cc2ccccc2C[C@H]1C(=O)O | Not Active | Not Active | Not Active | Not Active | Not Active | Not Active | Not Active | – | – | – | – | – | – | – | –
O=C(c1ccccc1Cl)N1CCC(Cc2ccccc2)CC1 | Not Active | Not Active | Not Active | Not Active | Not Active | Not Active | Not Active | – | – | – | – | – | – | – | –
CCOC(=O)[C@H](CCc1ccccc1)N[C@@H](C)C(=O)N1CCC[C@H]1C(=O)O | Not Active | Not Active | Not Active | Not Active | Not Active | Not Active | Not Active | – | – | – | – | – | – | – | –
Clc1cc2c(cc1Cl)Oc1cc(Cl)c(Cl)cc1O2 [2,3,7,8-TETRACHLORODIBENZO-P-DIOXIN] | Not Active | Not Active | Not Active | Not Active | Not Active | – | Not Active | – | – | 8.57 | 9.16 | – | – | – | –
C=C1/C(=C\C=C2/CCC[C@]3(C)[C@@H]([C@H](C)CCCC(C)C)CC[C@@H]23)C[C@@H](O)C[C@@H]1O [ALFACALCIDOL] | Not Active | – | Not Active | Not Active | Not Active | Not Active | Not Active | – | – | – | – | – | – | – | –
CCCCCC[C@H]1C(=O)O[C@H](C)[C@H](NC(=O)c2cccc(NC=O)c2O)C(=O)O[C@@H](C)[C@@H]1OC(=O)CC(C)C [ANTIMYCIN A] | Not Active | Not Active | Not Active | Not Active | Not Active | Not Active | Not Active | – | – | – | – | – | – | – | –
C[C@@H]1CC[C@H]2[C@@H](C)C(=O)O[C@@H]3O[C@@]4(C)CC[C@@H]1[C@]32OO4 [ARTEMISININ] | Not Active | Not Active | Not Active | – | – | Not Active | Not Active | – | – | – | – | – | – | – | –
CO[C@H]1[C@@H](O)[C@H](N)[C@@H](O[C@H]2O[C@H]([C@H](C)N)CC[C@H]2N)[C@H](O)[C@@H]1N(C)C(=O)CN [ASTROMICIN] | Not Active | Not Active | Not Active | Not Active | Not Active | Not Active | Not Active | – | – | – | – | – | – | – | –
[N-]=[N+]=CC(=O)OC[C@H](N)C(=O)O [AZASERINE] | Not Active | Not Active | Not Active | Not Active | Not Active | Not Active | Not Active | – | – | – | – | – | – | – | –
CC[C@H]1OC(=O)[C@H](C)[C@@H](O[C@H]2C[C@@](C)(OC)[C@@H](O)[C@H](C)O2)[C@H](C)[C@@H](O[C@@H]2O[C@H](C)C[C@H](N(C)C)[C@H]2O)[C@](C)(O)C[C@@H](C)CN(C)[C@H](C)[C@@H](O)[C@]1(C)O [AZITHROMYCIN] | Not Active | Not Active | Not Active | – | – | Not Active | Not Active | – | – | – | – | – | – | – | –
CC(C)C[C@H]1C(=O)N2CCC[C@H]2[C@]2(O)O[C@](NC(=O)[C@@H]3C=C4c5cccc6[nH]c(Br)c(c56)C[C@H]4N(C)C3)(C(C)C)C(=O)N12 [BROMOCRIPTINE] | Not Active | Not Active | Not Active | – | – | Not Active | Not Active | – | – | – | – | – | – | – | –
CCC[C@@H]1C[C@@H](C(=O)N[C@@H]([C@H]2O[C@H](SC)[C@H](O)[C@@H](O)[C@H]2O)[C@H](C)Cl)N(C)C1 [CLINDAMYCIN] | Not Active | Not Active | Not Active | – | – | Not Active | Not Active | – | – | – | – | – | – | – | –
C#C[C@]1(O)CC[C@H]2[C@@H]3CCC4=Cc5oncc5C[C@]4(C)[C@H]3CC[C@@]21C [DANAZOL] | – | – | Not Active | Not Active | Not Active | Not Active | – | – | – | – | – | 4.58 | 5.05 | 4.77 | 4.89
CN1C(=O)CN=C(c2ccccc2)c2cc(Cl)ccc21 [DIAZEPAM] | Not Active | Not Active | Not Active | – | – | Not Active | Not Active | – | – | – | – | – | – | – | –
CN1C[C@H](C(=O)N[C@]2(C)O[C@@]3(O)[C@@H]4CCCN4C(=O)[C@H](Cc4ccccc4)N3C2=O)C[C@@H]2c3cccc4[nH]cc(c34)C[C@H]21 [DIHYDROERGOTAMINE] | Not Active | Not Active | Not Active | – | – | Not Active | Not Active | – | – | – | – | – | – | – | –
C#C[C@]1(O)CC[C@H]2[C@@H]3CCc4cc(O)ccc4[C@H]3CC[C@@]21C [ETHINYL ESTRADIOL] | Not Active | – | Not Active | Not Active | Not Active | Not Active | Not Active | – | – | – | – | – | – | – | –
CCOC(=O)C1=C(C)NC(C)=C(C(=O)OC)C1c1cccc(Cl)c1Cl (configuration not stated) [FELODIPINE] | Not Active | Not Active | Not Active | – | – | Not Active | Not Active | – | – | – | – | – | – | – | –
Cc1cn[nH]c1 [FOMEPIZOLE] | Not Active | Not Active | Not Active | – | – | Not Active | Not Active | – | – | – | – | – | – | – | –
Cc1cnc(C(=O)NCCc2ccc(S(=O)(=O)NC(=O)NC3CCCCC3)cc2)cn1 [GLIPIZIDE] | Not Active | Not Active | – | – | – | Not Active | Not Active | – | – | – | – | – | – | – | –
COc1ccccc1OCC(O)CO (configuration not stated) [GUAIFENESIN] | Not Active | Not Active | Not Active | – | – | Not Active | Not Active | – | – | – | – | – | – | – | –
C[C@]12CCC(=O)C=C1CC[C@@H]1[C@@H]2[C@@H](O)C[C@@]2(C)[C@H]1CC[C@]2(O)C(=O)CO [HYDROCORTISONE] | Not Active | – | Not Active | Not Active | Not Active | Not Active | Not Active | – | – | – | – | – | – | – | –
C/C=C\c1ccc(O)c(OC)c1 [ISOEUGENOL] | Not Active | Not Active | Not Active | – | – | Not Active | Not Active | – | – | – | – | – | – | – | –
CC[C@H](C)C(=O)O[C@H]1C[C@@H](C)C=C2C=C[C@H](C)[C@H](CC[C@@H]3C[C@@H](O)CC(=O)O3)[C@H]21 [LOVASTATIN] | – | – | Not Active | – | – | Not Active | Not Active | 5.06 | 5.06 | – | – | 4.55 | 5.03 | – | –
OCCN1CCN(CCCN2c3ccccc3Sc3ccc(Cl)cc32)CC1 [PERPHENAZINE] | Not Active | Not Active | Not Active | – | – | Not Active | Not Active | – | – | – | – | – | – | – | –
